Assay results reported in ChEMBL document CHEMBL1201862, “PubChem BioAssay data set” (2004).
Activity calls are given as the source filed them.

Key:
[1] = Luminescence Cell-Based Dose Response HTS to Identify Activators of Luciferase Translation or Activity in H4 […] Cells. [Related pubchem assays: 1829 (Project Summary), 1814 (Primary HTS)]; type: functional
[2] = cells
[3] = system: H4; test: Luminescence Cell-Based Dose Response HTS to Identify Activators of 5'UTR Stem-Loop Driven Prion Protein mRNA Translation in H4 Neuroglioblastoma Cells. [Related pubchem assays: 1829 (Project Summary), 1814 (Primary HTS)]; type: functional; settings: Homo sapiens
[4] = target: Major prion protein (Homo sapiens, UniProt P04156); type: functional, cell-based
[5] = A Cell Based Secondary Assay To Explore Cytotoxicity of Compounds that Sensitize Mycobacterium Tuberculosis to Beta-Lactam Antibiotics.; type: functional
[6] = cells; remark: listed apart in the source
[7] = target: T1, Oxysterols receptor LXR-beta (Homo sapiens, UniProt P55055); type: functional, cell-based
T1 sequence (P55055 whole entry): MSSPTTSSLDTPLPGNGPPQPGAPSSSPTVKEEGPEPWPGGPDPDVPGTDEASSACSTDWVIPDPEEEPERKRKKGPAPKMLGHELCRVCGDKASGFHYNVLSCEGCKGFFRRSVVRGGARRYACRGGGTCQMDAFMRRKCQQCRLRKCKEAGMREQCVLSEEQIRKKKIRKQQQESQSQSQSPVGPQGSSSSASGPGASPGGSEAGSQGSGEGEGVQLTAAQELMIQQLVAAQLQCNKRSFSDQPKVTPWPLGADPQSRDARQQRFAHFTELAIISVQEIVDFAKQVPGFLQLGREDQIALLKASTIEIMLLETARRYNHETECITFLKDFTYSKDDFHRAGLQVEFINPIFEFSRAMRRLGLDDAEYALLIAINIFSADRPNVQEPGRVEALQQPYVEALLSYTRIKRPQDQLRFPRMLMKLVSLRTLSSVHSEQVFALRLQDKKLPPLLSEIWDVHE

[8] = target: T2, Corticotropin-releasing factor receptor 2/Corticotropin-releasing factor-binding protein (Homo sapiens, UniProt P24387+Q13324); test: Dose Response confirmation of uHTS hits for small molecule antagonists of the CRF-binding protein and CRF-R2 receptor complex.; type: functional; settings: read-out: IC50_Mean
T2 sequence (Q13324 whole entry): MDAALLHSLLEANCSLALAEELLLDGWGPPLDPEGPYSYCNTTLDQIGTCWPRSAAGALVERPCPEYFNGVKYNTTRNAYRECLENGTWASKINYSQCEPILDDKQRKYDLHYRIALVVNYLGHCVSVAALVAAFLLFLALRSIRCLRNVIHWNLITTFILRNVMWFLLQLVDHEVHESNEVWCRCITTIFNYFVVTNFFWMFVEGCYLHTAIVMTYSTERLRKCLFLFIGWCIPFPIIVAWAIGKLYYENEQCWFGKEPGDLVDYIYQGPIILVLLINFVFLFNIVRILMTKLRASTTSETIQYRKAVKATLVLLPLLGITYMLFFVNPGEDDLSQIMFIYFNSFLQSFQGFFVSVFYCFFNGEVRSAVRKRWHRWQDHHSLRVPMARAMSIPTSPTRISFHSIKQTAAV
T2 sequence (P24387 whole entry): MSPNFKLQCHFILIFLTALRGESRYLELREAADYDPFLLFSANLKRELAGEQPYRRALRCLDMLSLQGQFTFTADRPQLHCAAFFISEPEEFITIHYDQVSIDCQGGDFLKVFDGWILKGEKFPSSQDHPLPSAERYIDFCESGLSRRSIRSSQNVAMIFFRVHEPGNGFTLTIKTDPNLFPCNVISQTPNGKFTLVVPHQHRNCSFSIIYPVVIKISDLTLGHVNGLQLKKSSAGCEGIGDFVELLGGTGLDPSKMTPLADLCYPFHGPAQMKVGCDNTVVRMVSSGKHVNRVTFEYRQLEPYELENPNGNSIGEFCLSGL

[9] = target: T2, Corticotropin-releasing factor receptor 2/Corticotropin-releasing factor-binding protein; test: activators of CRF receptor 2 with binding protein – uHTS hits, confirmation (AID 602473); type: functional; settings: read-out: EC50_Mean
[10] = target: T1, Oxysterols receptor LXR-beta; type: functional, cell-based; remark: listed apart in the source
[11] = cells; type: functional, cell-based
[12] = cells; type: functional, cell-based; remark: listed apart in the source
[13] = target: T3, Methionyl-tRNA synthetase, putative (Trypanosoma brucei brucei, UniProt Q38C91); type: functional, Trypanosoma brucei brucei strain 927/4 GUTat10.1
T3 sequence (Q38C91 whole entry): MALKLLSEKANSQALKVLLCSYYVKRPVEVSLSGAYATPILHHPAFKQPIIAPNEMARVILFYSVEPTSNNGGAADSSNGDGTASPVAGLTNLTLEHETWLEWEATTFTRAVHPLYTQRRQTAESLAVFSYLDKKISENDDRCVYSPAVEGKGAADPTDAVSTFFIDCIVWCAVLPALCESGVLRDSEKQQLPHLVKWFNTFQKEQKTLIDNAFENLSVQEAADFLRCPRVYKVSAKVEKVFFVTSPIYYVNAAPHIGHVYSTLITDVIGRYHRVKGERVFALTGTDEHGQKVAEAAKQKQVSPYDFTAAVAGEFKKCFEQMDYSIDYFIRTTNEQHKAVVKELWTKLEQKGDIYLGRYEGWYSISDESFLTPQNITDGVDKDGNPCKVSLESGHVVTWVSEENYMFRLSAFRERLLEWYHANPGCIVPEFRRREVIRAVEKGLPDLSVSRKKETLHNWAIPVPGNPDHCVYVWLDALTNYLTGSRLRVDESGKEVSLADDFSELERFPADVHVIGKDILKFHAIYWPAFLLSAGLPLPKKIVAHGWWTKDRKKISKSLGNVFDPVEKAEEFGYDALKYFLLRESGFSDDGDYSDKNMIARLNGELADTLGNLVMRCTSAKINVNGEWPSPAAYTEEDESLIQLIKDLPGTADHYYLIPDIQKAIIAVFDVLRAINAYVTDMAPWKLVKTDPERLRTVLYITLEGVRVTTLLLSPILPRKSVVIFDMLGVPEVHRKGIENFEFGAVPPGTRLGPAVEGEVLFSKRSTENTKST

[14] = target: T3, Methionyl-tRNA synthetase, putative; type: functional, Trypanosoma brucei brucei strain 927/4 GUTat10.1; remark: listed apart in the source
[15] = Counterscreen for inhibitors of Trypanosoma brucei methionyl tRNA synthetase (MetRS): Luminescence-based cell-based high throughput dose response assay to identify compounds that are cytotoxic to Jurkat human T lymphocyte cells.; type: functional
[16] = target: T4, Beta-lactamase (Pseudomonas aeruginosa, UniProt Q79MP6); test: inhibition of IMP-1 beta-lactamase activity – biochemical, epi-absorbance, selectivity assay for VIM-2 inhibitor project, dose response (AID 1920)
[17] = target: Beta-lactamase (Salmonella choleraesuis (strain SC-B67), UniProt Q5J463); test: Epi-absorbance-based counterscreen for selective VIM-2 inhibitors: dose response biochemical high throughput screening assay to identify inhibitors of TEM-1 serine-beta-lactamase.
[18] = target: T4, Beta-lactamase; test: […] counterscreen for selective VIM-2 inhibitors: dose response biochemical high throughput screening assay to identify inhibitors of IMP-1 metallo-beta-lactamase.
[19] = cells; type: functional, cell-based; remark: listed apart in the source
[20] = target: T5, Trace amine-associated receptor 1 (Homo sapiens, UniProt Q96RJ0); test: Counterscreen for agonists of the human trace amine associated receptor 1 (hTAAR1): Fluorescence-based cell-based high throughput dose response assay to identify hTAAR1 agonist that also desensitize TAAR1 receptor response.; type: functional
T5 sequence (Q96RJ0 whole entry): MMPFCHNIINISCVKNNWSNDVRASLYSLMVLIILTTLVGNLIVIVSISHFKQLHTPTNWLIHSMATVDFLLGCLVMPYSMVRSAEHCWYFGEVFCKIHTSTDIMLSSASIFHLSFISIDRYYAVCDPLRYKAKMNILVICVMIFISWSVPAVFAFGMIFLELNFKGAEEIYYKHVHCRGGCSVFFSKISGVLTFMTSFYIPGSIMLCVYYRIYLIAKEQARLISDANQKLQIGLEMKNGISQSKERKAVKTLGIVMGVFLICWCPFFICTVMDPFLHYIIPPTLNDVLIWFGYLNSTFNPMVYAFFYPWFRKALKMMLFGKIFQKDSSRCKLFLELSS

[21] = cells; type: functional, cell-based; remark: listed apart in the source
[22] = target: T5, Trace amine-associated receptor 1; test: Fluorescence-based cell-based high throughput dose response assay to identify agonists of the human trace amine associated receptor 1 (TAAR1).; type: functional
[23] = target: Arf-GAP with SH3 domain, ANK repeat and PH domain-containing protein 1 (Homo sapiens, UniProt Q9ULH1); type: functional;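 note: biochemical fluorescence polarization dose–response screen measuring inhibition of ASAP1; ASAP1 GAP domain stimulating GTP hydrolysis by truncated human ARF1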
[24] = inhibitors of EBV LMP1 NF-kappaB signaling – cell-based, luciferase reporter, luminescence, dry powder, set 2, dose response (AID 624376); type: functional
[25] = A2780 cell killing – plate reader, dry powder samples, cytotoxicity control, dose response (AID 743046); type: functional, cell-based
[26] = target: Paired box protein Pax-8 (Homo sapiens, UniProt Q06710); test: PAX8 transcriptional activity inhibition in RMG-I – RMG-I cells, luciferase, cherry-pick, dose response (AID 687027); type: functional, cell-based;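 note: luciferase reporter driven by Pax8 target thyroperoxidase promoter measured by SteadyGlo luminescence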
[27] = system: HEK293; test: viability loss in HEK293T cells – cell-based, ATP luminescence, cherry-pick samples, cytotoxicity control, dose response (AID 687005); type: functional; settings: Homo sapiens;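 note: cells exposed to compound for 48 hours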
[28] = system: HeLa; test: viability loss in HeLa cells – cell-based, ATP luminescence, cherry-pick samples, cytotoxicity control, dose response (AID 687004); type: functional; settings: Homo sapiens
[29] = HEK293 Cytotoxicity Assay Measured in Cell-Based System Using Plate Reader - 7071-01_Inhibitor_Dose_CherryPick_Activity_Set2.; type: functional
[30] = MITF: Counter assay: A375 proliferation Measured in Cell-Based System Using Plate Reader - 2084-03_Inhibitor_Dose_DryPowder_Activity_Set8.; type: functional; settings: A-375
[31] = MITF Orthogonal Assay: SK-MEL-5 CTG Assay Measured in Cell-Based System Using Plate Reader - 2084-02_Inhibitor_Dose_DryPowder_Activity_Set7.; type: functional
[32] = inhibitors of TRPM1-promoter reporter in SK-MEL-5 – cell-based, luciferase, dry powder, set 8, MITF inhibitor project, dose response (AID 624430); type: functional
[33] = viability loss in HEK293 kidney cells – cell-based, cherry-picks, set 5, cytotoxicity control, dose response (AID 1053117); type: functional

CC1CCCN(C(=O)CSc2cnc3ccccc3n2)C1 (stereo not drawn)
EC50 [1]: 5.25 µM (active) | IC50 [2]: > 138 µM (inactive) | EC50 [3]: 11 µM (active) | IC50 [4]: 5.87 µM (active)

Nc1c2c(nc3sc4c(c13)CCCC4)-c1ccccc1CC2
CC50 [5]: > 40 µM (active) | EC50 [6]: > 67.5 µM (inactive) | EC50 [7]: > 67.5 µM (inactive)

COc1ccc2c(C)cc(SCc3c(C)noc3C)nc2c1
IC50 [8]: > 47.1 µM (inactive) | IC50 [2]: > 138 µM (inactive) | EC50 [9]: > 53 µM (inactive) | IC50 [4]: 4.31 µM (active)

O=C(NCCCn1ccnc1)c1cc(-c2ccccc2)on1
EC50 [10]: > 67.5 µM (inactive) | EC50 [11]: > 350 µM (not active) | EC50 [12]: 8.67 µM (active)

Cc1ccc(NC(=O)C(C)c2cccc(C(=O)c3ccccc3)c2)cc1 (stereo not drawn)
IC50 [13]: 7.61 µM (active) | IC50 [14]: 3.15 µM (active) | IC50 [15]: 83.3 µM (inactive)

O=C(CSc1nnc(NC(=O)c2c(F)cccc2F)s1)NCc1ccccc1
IC50 [16]: > 59.6 µM (inactive) | IC50 [17]: > 59.6 µM (inactive) | IC50 [18]: > 59.6 µM (inactive)

O=C(O)C1C2C=CC(C2)C1C(=O)NCCc1ccccc1 (stereo not drawn)
EC50 [19]: > 29.9 µM (inactive) | IC50 [20]: 5.26 µM (active) | IC50 [21]: > 29.9 µM (inactive) | EC50 [22]: 0.14 µM (active)

COc1ccc(/C=C2\C(=O)NC(=O)c3ccccc32)cc1OC
IC50 [23]: 165 µM (inactive)

OC(c1cc(F)cc(Cl)c1)c1nc(-c2cccc(C(F)(F)F)c2)c[nH]1 (stereo not drawn)
IC50 [13]: 27.7 µM (inactive) | IC50 [14]: 17.5 µM (inactive) | IC50 [15]: 42.2 µM (inactive)

Cc1cc(O)ccc1Nc1cc(-c2cccc(N(C)C)c2)ncn1
EC50 [10]: > 67.5 µM (inactive)

O=C(N[C@@H](Cc1cccnc1)C(=O)N1CCC[C@H]1C(=O)NCCc1ccccc1Cl)c1ccccc1
EC50 [19]: > 29.9 µM (inactive) | IC50 [20]: 5.16 µM (active) | IC50 [21]: > 29.9 µM (inactive) | EC50 [22]: 4.3 µM (active)

Cc1noc(C)c1S(=O)(=O)Nc1ccc2c(c1)C(=O)N([C@@H](C)CO)C[C@@H](C)[C@H](CN(C)Cc1ccc(C(F)(F)F)cc1)OCCCC[C@@H](C)O2
AbsAC35 [24]: 151.1 µM

Cc1noc(C)c1S(=O)(=O)N(C)C[C@H]1OCCCC[C@@H](C)Oc2ccc(NS(=O)(=O)c3ccc(Cl)cc3)cc2C(=O)N([C@@H](C)CO)C[C@H]1C
AC50 [25]: < 0.26 µM (active) | AC50 [26]: 10.9 µM (active)

C[C@@H]1CN([C@@H](C)CO)C(=O)c2cc(NS(=O)(=O)c3ccc(F)cc3)ccc2O[C@@H](C)CCCCO[C@H]1CN(C)S(=O)(=O)c1ccc(F)cc1
AC50 [27]: 22.5 µM (active) | AC50 [28]: > 52 µM (inactive) | AC50 [29]: 22.5 µM (active)

C[C@H]1CN([C@@H](C)CO)C(=O)c2c(c3ccccc3n2C)-c2ccccc2CO[C@@H]1CN(C)C(=O)Nc1ccc(F)cc1
AbsAC35 [24]: 78.41 µM

O=C1C=C(Nc2cc(Cl)cc(Cl)c2)C(=O)c2ccccc21
AC50 [30]: 24 µM (active) | AC50 [31]: 1.12 µM (active) | AC50 [32]: 23.9 µM (active)

C[C@H]1CN([C@@H](C)CO)C(=O)c2cc(-c3ccccc3)cnc2O[C@H]1CN(C)C(=O)c1cccc(F)c1
AC50 [33]: > 52 µM (inactive)

Cc1ccc(/C=N/NC(=O)CCCOc2ccc(Cl)cc2Cl)cc1[N+](=O)[O-]
IC50 [23]: 26.1 µM (inactive)

O=C1C(Nc2ccc(I)cc2)=C(N2CCCCC2)C(=O)c2ccccc21
AC50 [30]: > 70 µM (inactive) | AC50 [31]: 15.9 µM (active) | AC50 [32]: 9.62 µM (active)
